Reference: patent publication US9181255B2, “Fused heteroaromatic pyrrolidinones as SYK inhibitors” (Takeda Pharmaceutical Company Limited, priority 2009, dated 2015)

These molecules were tested against SYK (Homo sapiens, UniProt P43405) (assay: SYK inhibition assay: SYK-mediated phosphorylation of FAM-labeled substrate (Caliper microfluidic)). Conditions: read-out: SYK Inhibition (pIC50) (converted).
Format: biochemical

SMILES | IC50 [µM]
CC(C)C[C@@H](Nc1nc(-c2ccco2)c2c(c1F)CNC2=O)C(N)=O [Example 113, (R)-2-(7-Fluoro-4-(furan-2-yl)-3-oxo-2,3-dihydro-1H-pyrrolo[3,4-c]pyridin-6-ylamino)-4-methylpentanamide] | 0.2
CC(C)C[C@@H](Nc1nc(-c2ccoc2)c2c(c1F)CNC2=O)C(N)=O [Example 114, (R)-2-(7-Fluoro-4-(furan-3-yl)-3-oxo-2,3-dihydro-1H-pyrrolo[3,4-c]pyridin-6-ylamino)-4-methylpentanamide] | 0.251
Cc1ccc(-c2nc(N[C@H](CC(C)C)C(N)=O)c(F)c3c2C(=O)NC3)o1 [Example 115, (R)-2-(7-Fluoro-4-(5-methylfuran-2-yl)-3-oxo-2,3-dihydro-1H-pyrrolo[3,4-c]pyridin-6-ylamino)-4-methylpentanamide] | 0.316
CC(C)C[C@@H](Nc1nc(-c2ccc(C#N)s2)c2c(c1F)CNC2=O)C(N)=O [Example 116, (R)-2-(4-(5-Cyanothiophen-2-yl)-7-fluoro-3-oxo-2,3-dihydro-1H-pyrrolo[3,4-c]pyridin-6-ylamino)-4-methylpentanamide] | 0.00794
CC(C)C[C@@H](Nc1nc(-c2cc(C#N)cs2)c2c(c1F)CNC2=O)C(N)=O [Example 117, (R)-2-(4-(4-Cyanothiophen-2-yl)-7-fluoro-3-oxo-2,3-dihydro-1H-pyrrolo[3,4-c]pyridin-6-ylamino)-4-methylpentanamide] | 0.0126
CC(C)C[C@@H](Nc1nc(-c2cncs2)c2c(c1F)CNC2=O)C(N)=O [Example 118, (R)-2-(7-Fluoro-3-oxo-4-(thiazol-5-yl)-2,3-dihydro-1H-pyrrolo[3,4-c]pyridin-6-ylamino)-4-methylpentanamide] | 0.0126
CC(C)C[C@@H](Nc1nc(-c2ccns2)c2c(c1F)CNC2=O)C(N)=O [Example 119, (R)-2-(7-Fluoro-4-(isothiazol-5-yl)-3-oxo-2,3-dihydro-1H-pyrrolo[3,4-c]pyridin-6-ylamino)-4-methylpentanamide] | 0.0158
Cn1cc(-c2nc(N[C@@H]3CCCC[C@@H]3N)c(F)c3c2C(=O)NC3(C)C)cn1 [Example 120, 6-((1R,2S)-2-Aminocyclohexylamino)-7-fluoro-1,1-dimethyl-4-(1-methyl-1H-pyrazol-4-yl)-1H-pyrrolo[3,4-c]pyridin-3(2H)-one] | 0.251
Cn1ccc(-c2nc(N[C@@H]3CCCC[C@@H]3N)c(F)c3c2C(=O)NC3)n1 [Example 121] | 3.98
Cc1ncc(-c2nc(N[C@@H]3CCCC[C@@H]3N)c(F)c3c2C(=O)NC3)s1 [Example 122, 6-((1R,2S)-2-Aminocyclohexylamino)-7-fluoro-4-(2-methylthiazol-5-yl)-1H-pyrrolo[3,4-c]pyridin-3(2H)-one] | 0.631
Cc1ccc(-c2nc(N[C@@H]3CCOC[C@@H]3N)c(F)c3c2C(=O)NC3)s1 [Example 123, 6-((3R,4R)-3-Aminotetrahydro-2H-pyran-4-ylamino)-7-fluoro-4-(5-methylthiophen-2-yl)-1H-pyrrolo[3,4-c]pyridin-3(2H)-one] | 0.00794
CC1NC(=O)c2c(-c3cnn(C)c3)nc(N[C@@H]3CCCC[C@@H]3N)c(F)c21 (stereo partly drawn) [Example 124, 6-((1R,2S)-2-Aminocyclohexylamino)-7-fluoro-1-methyl-4-(1-methyl-1H-pyrazol-4-yl)-1H-pyrrolo[3,4-c]pyridin-3(2H)-one] | 0.0251
N[C@H]1COCC[C@H]1Nc1nc(-c2cnn(C(F)F)c2)c2c(c1F)CNC2=O [Example 125, 6-((3R,4R)-3-Aminotetrahydro-2H-pyran-4-ylamino)-4-(1-(difluoromethyl)-1H-pyrazol-4-yl)-7-fluoro-1H-pyrrolo[3,4-c]pyridin-3(2H)-one] | 0.01
CC(C)C[C@@H](Nc1nc(-c2cccs2)c2c(c1F)CNC2=O)C(N)=O [Example 126, (R)-2-(7-Fluoro-3-oxo-4-(thiophen-2-yl)-2,3-dihydro-1H-pyrrolo[3,4-c]pyridin-6-ylamino)-4-methylpentanamide] | 0.00794
N[C@H]1COCC[C@H]1Nc1nc(-c2cccs2)c2c(c1F)CNC2=O [Example 127, 6-((3R,4R)-3-Aminotetrahydro-2H-pyran-4-ylamino)-7-fluoro-4-(thiophen-2-yl)-1H-pyrrolo[3,4-c]pyridin-3(2H)-one] | 0.00631
N[C@H]1COCC[C@H]1Nc1nc(-c2cncs2)c2c(c1F)CNC2=O [Example 128, 6-((3R,4R)-3-Aminotetrahydro-2H-pyran-4-ylamino)-7-fluoro-4-(thiazol-5-yl)-1H-pyrrolo[3,4-c]pyridin-3(2H)-one] | 0.02
N[C@H]1CCCC[C@H]1Nc1nc(-c2cccs2)c2c(c1F)CNC2=O [Example 129, 6-((1R,2S)-2-Aminocyclohexylamino)-7-fluoro-4-(thiophen-2-yl)-1H-pyrrolo[3,4-c]pyridin-3(2H)-one] | 0.00398
N[C@H]1COCC[C@H]1Nc1nc(-n2cnc(C(F)(F)F)c2)c2c(c1F)CNC2=O [Example 130, 6-((3R,4R)-3-Aminotetrahydro-2H-pyran-4-ylamino)-7-fluoro-4-(4-(trifluoromethyl)-1H-imidazol-1-yl)-1H-pyrrolo[3,4-c]pyridin-3(2H)-one] | 10
Cc1cn(-c2nc(N[C@@H]3CCCC[C@@H]3N)c(F)c3c2C(=O)NC3)cn1 [Example 131, 6-((1R,2S)-2-Aminocyclohexylamino)-7-fluoro-4-(4-methyl-1H-imidazol-1-yl)-1H-pyrrolo[3,4-c]pyridin-3(2H)-one] | > 20
Cc1cc(-c2nc(N[C@@H]3CCOC[C@@H]3N)c(F)c3c2C(=O)NC3)sn1 [Example 132, 6-((3R,4R)-3-Aminotetrahydro-2H-pyran-4-ylamino)-7-fluoro-4-(3-methylisothiazol-5-yl)-1H-pyrrolo[3,4-c]pyridin-3(2H)-one] | 0.00398
Cc1ncc(-c2nc(N[C@@H]3CCOC[C@@H]3N)c(F)c3c2C(=O)NC3)s1 [Example 133, 6-((3R,4R)-3-Aminotetrahydro-2H-pyran-4-ylamino)-7-fluoro-4-(2-methylthiazol-5-yl)-1H-pyrrolo[3,4-c]pyridin-3(2H)-one] | 0.0251
N[C@H]1COCC[C@H]1Nc1nc(-c2cnn(C3CC3)c2)c2c(c1F)CNC2=O [Example 136, 6-((3R,4R)-3-Aminotetrahydro-2H-pyran-4-ylamino)-4-(1-cyclopropyl-1H-pyrazol-4-yl)-7-fluoro-1H-pyrrolo[3,4-c]pyridin-3(2H)-one] | 0.0316
